Test: Stability of SR13668 in Solutol (25° C. and 4° C.), HPLC/Fluorescence
Format: physicochemical
Details: for stability: 25° C. and 4° C.; for SR13668 assay, stability of SR13668/Solutol aqueous solution: aqueous sample (theoretical 1.2000); for SR13668 assay, stability in Solutol: solid sample in Eppendorf tube
Experimental: A batch of 5 mg SR13668/g Solutol was made by stirring at 95° C. for 24 hrs. […] The sample was centrifuged while warm and no crystals were observed on the bottom of the tube. The sample was assayed from the top, middle and bottom of the centrifuge tube and there was no significant difference in the measurements. The SR13668 assay is an isocratic HPLC method with Fluorescence detection. The SR13668 concentration in Solutol was determined to be 5.00±0.09 mg/g (n=5).
Three types of samples from the above formulation (a. Solid Samples, b. Aqueous Solution and c. Solid stored and combined with water before assay) were stored at 25° C. (constant temperature bath) and 4° C. (refrigerator) and assayed weekly with the same HPLC/Fluorescence analytical method for 1-month.
Eppendorf tubes containing 1-mL samples of the above 5 mg SR13668/g Solutol solution were capped and stored under the two temperature conditions described above. At each time point the samples were melted and centrifuged at 95° C. No solids were ever observed in these samples.
In a 50-mL centrifuge tube, 12 g of the 5 mg SR13668/g Solutol melt was accurately weighed. The tube was tared and water, warmed to 70° C., was added to the 50 mL mark on the tube and weighed. The concentration of SR13668 in the aqueous solution was calculated based on the average SR13668/Solutol concentration of 5.00±0.09 mg/g, the weight of the Solutol and the total weight of solution in the tube. The tube was stored under the two temperature conditions described previously and the assayed amounts were compared with the theoretical. Observations were made on the tubes and there were no significant changes in the solutions and no solids were observed. The 25° C. tube did get a cloudy film layer, possibly biological growth. The layer dispersed after vigorous shaking. The 4° C. samples are cloudy, but clear up when warmed to room temperature. See results Table 8 and FIG. 5.
An accurately weighed 200 mg aliquot of the above 5 mg/g Solutol solution was stored at 25° C. and 4° C. At each time point, the solids were melted at 90° C. and 800 mg of accurately weighed 90° C. water was added. The samples were mixed and observations made. In all cases no solids were observed. A sample aliquot of the above aqueous solution was analyzed by HPLC/Fluorescence and the results compared with theoretical. See results Table 9 and FIG. 6. The analytical method is validated ±5% from theoretical. The majority of the samples fell within this limit.

[1] = stored as solid, prepared as aqueous solution, 4° C. storage, 0
[2] = stored as solid, prepared as aqueous solution, 4° C. storage, Day
[3] = stored as solid, prepared as aqueous solution, 4° C. storage, Day 7
[4] = stored as solid, prepared as aqueous solution, 4° C. storage, Day 14
[5] = stored as solid, prepared as aqueous solution, 4° C. storage, Day 21
[6] = stored as solid, prepared as aqueous solution, 4° C. storage, Day 28

CCOC(=O)c1ccc2[nH]c3c(OC)c4[nH]c5ccc(C(=O)OCC)cc5c4cc3c2c1 [SR13668, 2,10-dicarbethoxy-6-methoxy-5,7-dihydro-indolo-(2,3-b)carbazole]
stability (5 mg SR13668/g Solutol, solid samples): stable within the error of the assay and no degradation was observed
stability (SR13668/Solutol aqueous solution): stable within error and no drug degradation was observed
SR13668 assay, stability of SR13668/Solutol aqueous solution (4° C. storage, Day): 1.1384 mg SR13668/g Solutol
SR13668 assay, stability of SR13668/Solutol aqueous solution (4° C. storage, Day 7): 1.1758 mg SR13668/g Solutol
SR13668 assay, stability of SR13668/Solutol aqueous solution (4° C. storage, Day 14): 1.1981 mg SR13668/g Solutol
SR13668 assay, stability of SR13668/Solutol aqueous solution (4° C. storage, Day 21): 1.2509 mg SR13668/g Solutol
SR13668 assay, stability of SR13668/Solutol aqueous solution (4° C. storage, Day 28): 1.1985 mg SR13668/g Solutol
SR13668 assay, stability of SR13668/Solutol aqueous solution (4° C. storage, Day 35): 1.1814 mg SR13668/g Solutol
SR13668 assay, stability of SR13668/Solutol aqueous solution (25° C. storage, Day): 1.5040 mg SR13668/g Solutol
SR13668 assay, stability of SR13668/Solutol aqueous solution (25° C. storage, Day 7): 1.1311 mg SR13668/g Solutol
SR13668 assay, stability of SR13668/Solutol aqueous solution (25° C. storage, Day 14): 1.2256 mg SR13668/g Solutol
SR13668 assay, stability of SR13668/Solutol aqueous solution (25° C. storage, Day 21): 1.2663 mg SR13668/g Solutol
SR13668 assay, stability of SR13668/Solutol aqueous solution (25° C. storage, Day 28): 1.2116 mg SR13668/g Solutol
SR13668 assay, stability of SR13668/Solutol aqueous solution (25° C. storage, Day 35): 1.1942 mg SR13668/g Solutol
SR13668 assay, stability in Solutol (4° C. storage, 0 (t = 0 melt samples)): 5.00 mg SR13668/g Solutol
SR13668 assay, stability in Solutol (4° C. storage, Day): 5.05 mg SR13668/g Solutol
SR13668 assay, stability in Solutol (4° C. storage, Day 7): 4.97 mg SR13668/g Solutol
SR13668 assay, stability in Solutol (4° C. storage, Day 14): 5.33 mg SR13668/g Solutol
SR13668 assay, stability in Solutol (4° C. storage, Day 21): 5.06 mg SR13668/g Solutol
SR13668 assay, stability in Solutol (4° C. storage, Day 28): 4.97 mg SR13668/g Solutol
SR13668 assay, stability in Solutol (4° C. storage, Day 35): 4.87 mg SR13668/g Solutol
SR13668 assay, stability in Solutol (25° C. storage, 0 (t = 0 melt samples)): 5.00 mg SR13668/g Solutol
SR13668 assay, stability in Solutol (25° C. storage, Day): 4.93 mg SR13668/g Solutol
SR13668 assay, stability in Solutol (25° C. storage, Day 7): 5.10 mg SR13668/g Solutol
SR13668 assay, stability in Solutol (25° C. storage, Day 14): 5.19 mg SR13668/g Solutol
SR13668 assay, stability in Solutol (25° C. storage, Day 21): 5.14 mg SR13668/g Solutol
SR13668 assay, stability in Solutol (25° C. storage, Day 28): 5.00 mg SR13668/g Solutol
SR13668 assay, stability in Solutol (25° C. storage, Day 35): 4.93 mg SR13668/g Solutol
stability (stored as solid, prepared as aqueous solution): no trends or indications that the samples are unstable
% difference from Theory [1]: −6.71%
Measured mg SR13668/g Solutol [1]: 0.9238 mg SR13668/g Solutol
% difference from Theory [2]: −7.00%
Measured mg SR13668/g Solutol [2]: 0.8804 mg SR13668/g Solutol
% difference from Theory [3]: 0.78%
Measured mg SR13668/g Solutol [3]: 0.9866 mg SR13668/g Solutol
% difference from Theory [4]: 2.91%
Measured mg SR13668/g Solutol [4]: 1.0608 mg SR13668/g Solutol
% difference from Theory [5]: −2.29%
Measured mg SR13668/g Solutol [5]: 0.9809 mg SR13668/g Solutol
% difference from Theory [6]: −4.87%
Measured mg SR13668/g Solutol [6]: 0.9160 mg SR13668/g Solutol
